Laboratory results taken from patent US20200190062A1, “HETEROCYCLIC COMPOUND AND PHARMACEUTICAL COMPOSITION COMPRISING SAME” (BEYONDBIO INC., priority 2015, published 2020).
Where a name gives a salt, the structure may show the parent alone.

Key:
Assay in all cases: Inhibition of cancer cell proliferation (MTT)
Assay type in all cases: cell-based, human
[1] = test system: A549
Procedure: (§1) A test was conducted to confirm whether the compounds obtained in the above Examples can inhibit proliferation of human colon carcinoma cell line HCT116, glioblastoma cell lines U-87MG and T98G, neuroblastoma cell lines SH-SYSY and SK-N-SH, and lung cancer cell lines A549 and NCI-H23.
(§2) HCT116, U-87MG, SH-SYSY, SK-N-SH and A549 cells were culured in DMEM medium containing 10% FBS. T98G cells were cultured in MEM medium containing 10% FBS and NCI-H23 cells were cultured in […] medium containing 10% FBS. In order to analyze an inhibition of proliferation, HCT116 cells were dispensed in 2000 cells/well into 96 well plate, and SH-SYSY, SK-N-SH, U-87MG, T98G, A549, and NCI-H23 cells were dispensed in 3000 cells/well into 96 well plate. And then, the cells were cultured at 5% CO2 and 37° C. for 16 hrs to allow the cells to attach to the wells. The compounds of the above Examples were added to each well at a concentration of 0.004, 0.013, 0.04, 0.12, 0.37, 1.1, 3.3, and 10 uM, and the culture volume was adjusted to 100 ul. A control group was treated with dimethylsulfoxide (DMSO) at the same concentration, 0.08%, as used to treat the test compounds. Afterwards, cells were cultured at 5% CO2 and 37° C. for 72 hrs. And then, 10 ul of the solution of MTT (3-(4,5-dimethylthiazol-2-yl)-2,5-diphenyltetrazolium bromide) dissolved in PBS at 5 mg/ml was added to each well to identify viable cells and the cells were cultured for further 2 hrs. The culture solution was removed, 100 ul of DMSO was added to dissolve the formed formazan and then an absorbance was measured at 535 nm. Based on the absorbance of the control cells not treated with the compounds, the amounts of the viable cells according to the concentration of the compounds were calculated. GI50 (growth inhibition 50) value which is the concentration of the compound to inhibit cancer cell proliferation by 50% was calculated using Graphpad Prism 5.0 program.

[2] = test system: T98G
Procedure: as §1, §2

[3] = test system: HCT116
Procedure: as §1, §2

[4] = test system: U-87MG
Procedure: as §1, §2

[5] = test system: NCI-H23
Procedure: as §1, §2

SMILES	GI50 ([1]; 72 hrs) [nM]	GI50 ([3]; 72 hrs) [nM]	GI50 ([5]; 72 hrs) [nM]	GI50 ([3]; Homo sapiens, HCT-116, 72 h) [nM]	also measured
CCc1cnc(N)nc1-c1nc(-c2ccnc(N)c2F)ccc1O [Example 56, 2′-amino-6-(2-amino-5-ethylpyrimidin-4-yl)-3′-fluoro-[2,4′-bipyridin]-5-ol]	–	30	90	–	GI50 ([1]; Homo sapiens, A549, 72 h): 80 nM; GI50 ([2]; 72 hrs): 130 nM; GI50 ([4]; Homo sapiens, U-87 MG, 72 h): 60 nM
Nc1cccc(-c2nc(-c3ccnc(N)n3)ccc2O)n1 [Example 7, 6′-amino-6-(2-aminopyrimidin-4-yl)-[2,2′-bipyridin]-3-ol]	–	–	–	670	–
Nc1nccc(-c2cnc(O)c(-c3ccnc(N)n3)c2)n1 [Example 6, 3,5-bis(2-aminopyrimidin-4-yl)pyridin-2-ol]	–	–	–	2300	–
Cc1cc(-c2nc(-c3ccncc3)ccc2O)nc(N)n1 [Example 25, 6-(2-amino-6-methylpyrimidin-4-yl)-[2,4′-bipyridin]-5-ol]	–	–	–	290	–
CC(C)N1CCCC(c2cc(-c3nc(-c4ccnc(N)c4F)ccc3O)nc(N)n2)C1 (stereo not shown) [Example 41, 2′-amino-6-(2-amino-6-(1-isopropylpiperidin-3-yl)pyrimidin-4-yl)-3′-fluoro-[2,4′-bipyridin]-5-ol]	–	–	–	20	GI50 ([1]; Homo sapiens, A549, 72 h): 40 nM; GI50 ([2]; Homo sapiens, T98G, 72 h): 110 nM; GI50 ([4]; Homo sapiens, U-87 MG, 72 h): 40 nM; GI50 ([5]; Homo sapiens, NCI-H23, 72 h): 70 nM
CCN1CCC(c2cc(-c3nc(-c4ccnc(N)c4F)ccc3O)nc(N)n2)CC1 [Example 35, 2′-amino-6-(2-amino-6-(1-ethylpiperidin-4-yl)pyrimidin-4-yl)-3′-fluoro-[2,4′-bipyridin]-5-ol]	–	–	–	10	GI50 ([1]; Homo sapiens, A549, 72 h): 20 nM; GI50 ([2]; Homo sapiens, T98G, 72 h): 210 nM; GI50 ([4]; Homo sapiens, U-87 MG, 72 h): 30 nM; GI50 ([5]; Homo sapiens, NCI-H23, 72 h): 60 nM
CCCc1c(-c2nc(-c3ccnc(N)c3F)ccc2O)nc(N)nc1C1CCN(C(C)C)CC1 [Example 50, 2′-amino-6-(2-amino-6-(1-isopropylpiperidin-4-yl)-5-propylpyrimidin-4-yl)-3′-fluoro-[2,4′-bipyridin]-5-ol]	150	–	–	40	GI50 ([2]; Homo sapiens, T98G, 72 h): 130 nM; GI50 ([4]; Homo sapiens, U-87 MG, 72 h): 70 nM; GI50 ([5]; Homo sapiens, NCI-H23, 72 h): 160 nM
Cc1c(-c2nc(-c3ccnc(N)c3F)ccc2O)nc(N)nc1C1CCCN(C(C)C)C1 (stereo not shown) [Example 48, 2′-amino-6-(2-amino-6-(1-isopropylpiperidin-3-yl)-5-methylpyrimidin-4-yl)-3′-fluoro-[2,4′-bipyridin]-5-ol]	–	–	–	2910	GI50 ([4]; Homo sapiens, U-87 MG, 72 h): 3820 nM
Cc1cc(-c2nc(-c3cccc(N)c3)ccc2O)nc(N)n1 [Example 30, 2-(2-amino-6-methylpyrimidin-4-yl)-6-(3-aminophenyl)pyridin-3-ol]	–	–	–	720	–
Cc1cc(-c2nc(-c3ccc(O)cc3F)ccc2O)nc(N)n1 [Example 29, 2-(2-amino-6-methylpyrimidin-4-yl)-6-(2-fluoro-4-hydroxyphenyl)pyridin-3-ol]	–	–	–	1260	–
Cc1cc(-c2nc(-c3ccncc3F)ccc2O)nc(N)n1 [Example 26, 6-(2-amino-6-methylpyrimidin-4-yl)-3′-fluoro-[2,4′-bipyridin]-5-ol]	–	–	–	1180	–
Cc1cc(-c2nc(-c3ccc(O)cc3)ccc2O)nc(N)n1 [Example 27, 2-(2-amino-6-methylpyrimidin-4-yl)-6-(4-hydroxyphenyl)pyridin-3-ol]	–	–	–	290	–
Nc1nccc(-c2nc(-c3cccnc3)ccc2O)n1 [Example 11, 6-(2-aminopyrimidin-4-yl)-[2,3′-bipyridin]-5-ol]	–	–	–	6080	–
Nc1cc(-c2ncc(O)c(-c3ccnc(N)n3)n2)ccn1 [Example 5, 2′-amino-2-(2-aminopyridin-4-yl)-[4,4′-bipyrimidin]-5-ol]	–	–	–	3590	–
CN1CCC(c2cc(-c3nc(-c4ccnc(N)c4F)ccc3O)nc(N)n2)CC1 [Example 79, 2′-amino-6-(2-amino-6-(1-methylpiperidin-4-yl)pyrimidin-4-yl)-3′-fluoro-[2,4′-bipyridin]-5-ol oxalate]	–	–	–	–	GI50 ([3]; 72 hrs, oxalate): 40 nM
Nc1nccc(-c2ccc(O)c(-c3ccnc(N)n3)n2)n1 [Example 62, 2,6-bis(2-aminopyrimidin-4-yl)pyridin-3-ol oxalate]	–	–	–	–	GI50 ([3]; 72 hrs, oxalate): 190 nM

Second part, led by results:

GI50 ([1]; 72 hrs) [nM]	GI50 ([3]; 72 hrs) [nM]	GI50 ([5]; 72 hrs) [nM]	GI50 ([3]; Homo sapiens, HCT-116, 72 h) [nM]	SMILES	also measured
10	10	20	–	CCCc1cnc(N)nc1-c1nc(-c2ccnc(N)c2F)ccc1O [Example 103, 2′-amino-6-(2-amino-5-propylpyrimidin-4-yl)-3′-fluoro-[2,4′-bipyridin]-5-ol 3hydrochloride]	GI50 ([2]; 72 hrs): 10 nM; GI50 ([4]; 72 hrs): 10 nM
20	40	40	–	CC(C)N1CCC(c2cc(-c3nc(-c4ccnc(N)c4F)ccc3O)nc(N)n2)CC1 [Example 88, 2′-amino-6-(2-amino-6-(1-isopropylpiperidin-4-yl)pyrimidin-4-yl)-3′-fluoro-[2,4′-bipyridin]-5-ol 4hydrochloride]	GI50 ([2]; 72 hrs): 20 nM; GI50 ([4]; 72 hrs): 10 nM
10	3	30	–	CN1CCC(c2cc(-c3nc(-c4ccnc(N)c4F)ccc3O)nc(N)n2)CC1 [Example 77, 2′-amino-6-(2-amino-(6-(1-methylpiperidin-4-yl)pyrimidin-4-yl)-3′-fluoro-[2,4′-bipyridin]-5-ol 4hydrochloride]	GI50 ([2]; 72 hrs): 30 nM; GI50 ([4]; 72 hrs): 10 nM
140	20	70	–	CC(C)c1cc(-c2nc(-c3ccnc(N)c3F)ccc2O)nc(N)n1 [Example 81, 2′-amino-6-(2-amino-6-isopropylpyrimidin-4-yl)-3′-fluoro-[2,4′-bipyridin]-5-ol 3hydrochloride]	–
60	30	90	–	CCc1c(-c2nc(-c3ccnc(N)c3F)ccc2O)nc(N)nc1C1CCN(C(C)C)CC1 [Example 105]	GI50 ([2]; 72 hrs): 60 nM; GI50 ([4]; 72 hrs): 40 nM
–	40	–	–	CN1CCC(c2cc(-c3nc(-c4ccnc(N)c4F)ccc3O)nc(N)n2)CC1 [Example 78, 2′-amino-6-(2-amino-6-(1-methylpiperidin-4-yl)pyrimidin-4-yl)-3′-fluoro-[2,4′-bipyridin]-5-ol 2acetate]	–
–	–	–	50	Cc1nc(N)nc(-c2nc(-c3ccnc(N)c3F)ccc2O)c1C [Example 60, 2′-amino-6-(2-amino-5,6-dimethylpyrimidin-4-yl)-3′-fluoro-[2,4′-bipyridin]-5-ol]	GI50 ([1]; Homo sapiens, A549, 72 h): 120 nM; GI50 ([2]; Homo sapiens, T98G, 72 h): 260 nM; GI50 ([4]; Homo sapiens, U-87 MG, 72 h): 220 nM; GI50 ([5]; Homo sapiens, NCI-H23, 72 h): 220 nM
130	60	210	–	Cc1c(-c2nc(-c3ccnc(N)c3F)ccc2O)nc(N)nc1C1CCN(C(C)C)CC1 [Example 96, 2′-amino-6-(2-amino-6-(1-isopropylpiperidin-4-yl)-5-methylpyrimidin-4-yl)-3′-fluoro-[2,4′-bipyridin]-5-ol 4hydrochloride]	GI50 ([2]; 72 hrs): 190 nM; GI50 ([4]; 72 hrs): 80 nM
10	–	20	–	CN1CCCC(c2cc(-c3nc(-c4ccnc(N)c4F)ccc3O)nc(N)n2)C1 (stereo not shown) [Example 89, 2′-amino-6-(2-amino-6-(1-methylpiperidin-3-yl)pyrimidin-4-yl)-3′-fluoro-[2,4′-bipyridin]-5-ol 4hydrochloride]	GI50 ([2]; 72 hrs): 20 nM
170	20	90	–	CC(C)c1cc(-c2nc(-c3ccnc(N)c3F)ccc2O)nc(N)n1 [Example 82, 2′-amino-6-(2-amino-6-isopropylpyrimidin-4-yl)-3′-fluoro-[2,4′-bipyridin]-5-ol 2acetate]	–
–	140	–	–	CN1CCC(c2cc(-c3nc(-c4ccnc(N)c4F)ccc3O)nc(N)n2)CC1 [Example 80, 2′-amino-6-(2-amino-6-(1-methylpiperidin-4-yl)pyrimidin-4-yl)-3′-fluoro-[2,4′-bipyridin]-5-ol malonate]	–
–	190	–	–	Nc1nccc(-c2ccc(O)c(-c3ccnc(N)n3)n2)n1 [Example 64, 2,6-bis(2-aminopyrimidin-4-yl)pyridin-3-ol sulfate]	–
–	2030	–	–	Cc1c(-c2nc(-c3ccnc(N)c3F)ccc2O)nc(N)nc1C1CCCN(C(C)C)C1 (stereo not shown) [Example 99, 2′-amino-6-(2-amino-6-(1-isopropylpiperidin-3-yl)-5-methylpyrimidin-4-yl)-3′-fluoro-[2,4′-bipyridin]-5-ol 4hydrochloride]	GI50 ([2]; Homo sapiens, T98G, 72 h): 3790 nM; GI50 ([4]; 72 hrs): 2570 nM
–	190	–	–	Nc1nccc(-c2ccc(O)c(-c3ccnc(N)n3)n2)n1 [Example 63, 2,6-bis(2-aminopyrimidin-4-yl)pyridin-3-ol malonate]	–
